Data set [1] in a line: Single dose pharmacokinetic study in male ICR mice. The format is in vivo. The settings on record: for half-life: read-out: t1/2β (converted). As to the method:
The animal Care and Welfare Committee of Institute of Materia Medica, Chinese Academy of Medical Sciences approved all animal care, housing, and laboratory procedures. Male ICR mice were used in the single dose pharmacokinetic studies. Compound DX-03-12 was prepared as 3 mg/mL suspension with 0.5% CMC (containing 0.3% Tween 80) for oral use and was formulated as 3 mg/mL solution with 5% DMSO in saline for intravenous injection. Twenty mice were divided into two groups, 10 in each group. After fasting 12 h with free access to water, mice were treated with a 3 mg/kg i.v. or 30 mg/kg oral dose of compound DX-03-12. Blood samples (50 µL) were collected at 5, 15, 30 min, 1, 2, 4, 6, 8, 12 and 24 h after oral administration and 2, 5, 15, 30 min, 1, 2, 4, 6, 8, 12 and 24 h after intravenous injection. After centrifugation, the plasma samples (15 µL) were precipitated by five volumes of acetonitrile. The supernatant were analyzed by liquid chromatography/tandem mass spectrometry (Agilent Technologies, Santa Clara, CA, USA) with a Zobax C18 column (50 mm × 2.1 mm, 3.5 µm). Compound detection was performed with the mass spectrometer in MRM (multiple reaction monitoring, Agilent Technologies, Santa Clara, CA, USA) negative ionization mode. The selected reaction monitoring transitions were m/z 348.5→160 for compound DX-03-12. The pharmacokinetic parameters were calculated with WinNonlin software V6.3 using non-compartmental analysis (Pharsight Corporation, Mountain View, CA, USA).

Data set [2] can be described thus: Body weight and white blood cells in B16F10 xenograft mice. The settings on record: 30 or 60 mg/kg/day oral or i.p. The format is in vivo. As to the method: (§1) The mouse melanoma cells B16F10 were cultured and harvested in saline. At day 0 of the experiment, 1 × 10^6 cells were injected subcutaneously into mice, and treatment was initiated at day 1 following the mice enrolled randomly in control and experimental groups. For control group, 0.5% CMCNa was orally administered every day. Compound DX-03-12 was dissolved in 0.5% CMC for oral treatment or dissolved in saline for intraperitoneal treatment. When the mice were sacrificed, the tumors were stripped and weighted. […] The statistical analysis was performed with GraphPad Prism 8.0 software and the significance level was evaluated with a one-way ANOVA model.

For data set [3], the system named is NCI-H460 human lung cancer cell line. In words: Cell viability MTT assay, 72 h. The format is cell-based. The settings on record: at 50 μM, shown when calculated IC50 >50 μM, read-out: H460 inhibition rate (%) at 50 μM. The method, then:
(§2) B16-F10 mouse melanoma cells, NCI-H460 human lung cancer cell line and MCF7 were obtained from American Type Culture Collection (ATCC). All the cell lines were cultured with Dulbecco’ modified Eagle’s medium (DMEM) (Invitrogen Corporation, Waltham, MA, USA) supplemented with 10% fetal bovine serum (FBS) (Hyclone, Waltham, MA, USA) and 1% penicillin streptomycin (Invitrogen) at 37 °C in 5% CO2.
(§3) The in vitro inhibitory effects of the compounds were measured by MTT assay. Briefly, different kinds of cells were plated in 96-well plates at a density of 2000/well. After attachment for overnight at 37 °C, the cells were treated with the compounds at various concentrations. After 72 h culture, the MTT reagent was added to each well, and plates were incubated for another 4 h at 37 °C. Then, the blue-purple crystal formamidine was dissolved in DMSO after discarding the supernatant. Samples were measured using microplate reader at a wavelength of 570 nm (Biotek Instruments, Inc., Winooski, VT, USA). IC50 values were calculated with GraphPad Prism 8.0 software.

In data set [4] the test system is MCF7. In words: Cell viability MTT assay, 72 h. The format is cell-based. The settings on record: Homo sapiens, at 50 μM, shown when calculated IC50 >50 μM, read-out: MCF7 inhibition rate (%) at 50 μM. The method, then:
as §2, §3

For data set [5], the target named is rhTDO (Homo sapiens, UniProt P48775). In words: Enzyme-based TDO activity assay (kynurenine absorbance at 492 nm). The format is biochemical. The method, then:
(§4) The compounds on IDO1 or TDO activity were determined as follows: A standard reaction mixture (100 μL) containing 100 mM potassium phosphate buffer (pH 6.5), 40 mM ascorbic acid (neutralized with NaOH), 200 μg/mL catalase, 20 μM methylene blue and 0.05 μM rhIDO1 or rhTDO was added to the solution containing the substrate L-tryptophan and the test sample at a determined concentration. […] The yellow pigment derived from kynurenine was measured at 492 nm using a SYNERGY-H1 microplate reader (Biotek Instruments, Inc., Winooski, VT, USA). IC50 was analyzed using the GraphPad Prism 8.0 software (GraphPad Software, San Diego, CA, USA).

Data set [6] deals with mouse melanoma cells B16F10. In words: In vivo anti-tumor efficacy, B16F10 subcutaneous xenograft model. The settings on record: 60 mg/kg/day, 19 days treatment. The arrangement: species or system mice. As to the method: C57BL/6 mice were obtained from Beijing Vital River Laboratory Animal Technology Co., Ltd. (Beijing Vital River Laboratory Animal Technology Co., Ltd, Beijing, China). Studies involving mice were approved by the Experimental Animal Management and Welfare Committee at the Institute of Materia Medica, Peking Union Medical College.
as §1

For data set [7], the target named is rhIDO1 (Homo sapiens, UniProt P14902). In words: Enzyme-based IDO1 activity assay (kynurenine absorbance at 492 nm). The format is biochemical. The settings on record: rhIDO1 0.05 μM, 37 °C, 45 min; read-out: IDO IC50. The method, then:
as §4

Data set [8] concerns pathway. The settings on record: reported value; cited from earlier work.
Where [9] appears, read: mouse, plasma, PO 30 mg/kg, male ICR mice.
[10] abbreviates: mouse, plasma, iv 3 mg/kg, male ICR mice.

Where “and” joins values, the source holds several entries; their conditions need not be identical. Equal values may be shown once. Entries after “also recorded” stand apart in the source; their conditions may differ. Read-outs that look alike come from different tables or passages of the source.

rhTDO, sequence (P48775 whole entry): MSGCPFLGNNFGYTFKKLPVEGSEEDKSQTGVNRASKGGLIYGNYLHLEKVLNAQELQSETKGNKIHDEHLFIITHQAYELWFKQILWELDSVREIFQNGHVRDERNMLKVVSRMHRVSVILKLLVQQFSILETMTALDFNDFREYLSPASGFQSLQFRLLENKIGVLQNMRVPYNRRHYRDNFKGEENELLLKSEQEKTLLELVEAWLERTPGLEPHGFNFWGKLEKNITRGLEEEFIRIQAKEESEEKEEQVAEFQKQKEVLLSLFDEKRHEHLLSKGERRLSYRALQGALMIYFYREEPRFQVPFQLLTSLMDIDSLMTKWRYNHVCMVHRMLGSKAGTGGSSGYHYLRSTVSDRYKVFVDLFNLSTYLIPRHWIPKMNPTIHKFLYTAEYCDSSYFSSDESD
rhIDO1, sequence (P14902 whole entry): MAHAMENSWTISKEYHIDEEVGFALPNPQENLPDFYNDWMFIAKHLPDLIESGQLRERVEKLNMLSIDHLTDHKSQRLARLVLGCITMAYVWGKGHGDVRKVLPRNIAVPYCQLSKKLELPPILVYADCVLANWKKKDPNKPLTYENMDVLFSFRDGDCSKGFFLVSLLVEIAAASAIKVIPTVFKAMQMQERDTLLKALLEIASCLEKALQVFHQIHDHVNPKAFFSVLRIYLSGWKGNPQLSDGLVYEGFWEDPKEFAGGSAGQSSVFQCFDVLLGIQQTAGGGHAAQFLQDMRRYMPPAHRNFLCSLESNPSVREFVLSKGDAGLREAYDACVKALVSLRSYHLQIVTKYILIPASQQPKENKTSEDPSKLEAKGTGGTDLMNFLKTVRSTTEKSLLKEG

By Vss is commonly meant a proportionality between amount in the body and measured concentration, not a real space. Higher therefore signals wide distribution into tissue. Usually bioavailability stands for the share of a dose that reaches the circulation, judged against a reference dose that is usually intravenous. Broadly, the AUC(0-inf) is the area under the concentration-time curve extrapolated to infinity. Low readings indicate low exposure, high ones high exposure. What is called AUC(0-t) is the area under the concentration-time curve up to a stated or last time point. Higher therefore signals high exposure. Usually Tmax stands for the time from dosing to the highest level. Usually clearance stands for a measure of how efficiently the substance is removed, as volume per time. Low values mean inefficient removal, high ones efficient removal. Usually Cmax stands for the highest concentration seen after dosing. As usually defined, the inhibition is the relative decrease from the control value, in per cent. As a reminder, the IC50 is the concentration at which inhibition is half-maximal. `O=S(=O)(NCCCOc1ccccc1-c1cnc[nH]1)C(F)(F)F` [DX-03-12, N-(3-(2-(1H-imidazol-5-yl)phenoxy)propyl)-1,1,1-trifluoromethane sulfonamide]: the t1/2β in data set [1] (PO 30 mg/kg, male ICR mice, 30 mg/kg) was 4.6 h and 4.61 h. In addition, in data set [1] (iv 3 mg/kg, male ICR mice, 3 mg/kg), the Vss is 10.1 L/kg. Moreover, the “plasma clearance as % of mouse hepatic blood flow” value in data set [1] (iv 3 mg/kg, hepatic blood flow 90 mL/min/kg) is recorded as around 36%. The Vd in data set [1] (male, ICR, mouse, plasma, iv, 3 mg/kg, iv 3 mg/kg, male ICR mice, read-out: Vss) turned out to be 10 L/kg. The half-life in data set [1] (male, ICR, mouse, plasma, iv, 3 mg/kg, iv 3 mg/kg, male ICR mice) was 3.49 h; in data set [1] (male, ICR, mouse, plasma, po, 30 mg/kg, PO 30 mg/kg, male ICR mice), around 4.6 h. The bioavailability in data set [1] (male, ICR, mouse, plasma, oral, 30 mg/kg, PO 30 mg/kg vs iv 3 mg/kg, male ICR mice, read-out: F% (oral bioavailability)) is around 96%. In addition, the values for the total exposure AUC(0-inf) in data set [1] (setting [9]) and in data set [1] (setting [10]) were 13100 ng·h/mL and 1500 ng·h/mL, respectively. Besides, the figures for the AUC(0-t) in data set [1] (setting [9]) and in data set [1] (setting [10]) were 12900 ng·h/mL and 1350 ng·h/mL, respectively. In addition, the Tmax in data set [1] (setting [9]) turned out to be 1 h; in data set [1] (setting [10]), 0.033 h. Further, the clearance in data set [1] (setting [10]) was 33.3 mL/min/kg. Besides, the Cmax in data set [1] (mouse, PO 30 mg/kg, male ICR mice, plasma) was 2960 ng/mL; in data set [1] (mouse, iv 3 mg/kg, male ICR mice, plasma), 2140 ng/mL. Further, the “effect on body weight of the mice” value in data set [2] was “no obvious weight loss; also recorded: no obvious effect”. Also, the “effect on peripheral white blood cells” value in data set [2] is “no obvious effect”. Besides, the inhibition at 50 µM in data set [3] was 19.3%; in data set [4], 6.6%; in data set [5] (at 50 μM, shown when calculated IC50 >50 μM, read-out: TDO inhibition rate (%) at 50 μM), 36.4%. Further, the “TDO inhibition, in words” value in data set [5] is on record as “marginal”. In addition, the “decrease in tumor weight (tumor growth inhibition) vs control” value in data set [6] (i.p.) was 72.3%; in data set [6] (oral), 72.2%. The IC50 in data set [7] stood at 300 nM.

Turning to `Cn1cc(C[C@@H](N)C(=O)O)c2ccccc21` [indoximod], the IC50 in data set [8] was 450 nM.

(Values after article PMC6600671, “Design and Synthesis of Indoleamine 2,3-Dioxygenase 1 Inhibitors and Evaluation of Their Use as Anti-Tumor Agents” (Molecules, 2019).)
